Holding throughout (assay): Competition binding of fMLFK with WK(FITC)YMVm, flow cytometry on HEK293F cells
(In flow cytometry, cells or beads pass a laser one at a time.)

The target of test [1] is T1, wild-type (WT) and mutant FPR2 (Homo sapiens, UniProt P25090, E89G).
T1 construct: expressed in transfected cells; host or cells: HEK293F
T1 sequence (P25090 1-351 E89G): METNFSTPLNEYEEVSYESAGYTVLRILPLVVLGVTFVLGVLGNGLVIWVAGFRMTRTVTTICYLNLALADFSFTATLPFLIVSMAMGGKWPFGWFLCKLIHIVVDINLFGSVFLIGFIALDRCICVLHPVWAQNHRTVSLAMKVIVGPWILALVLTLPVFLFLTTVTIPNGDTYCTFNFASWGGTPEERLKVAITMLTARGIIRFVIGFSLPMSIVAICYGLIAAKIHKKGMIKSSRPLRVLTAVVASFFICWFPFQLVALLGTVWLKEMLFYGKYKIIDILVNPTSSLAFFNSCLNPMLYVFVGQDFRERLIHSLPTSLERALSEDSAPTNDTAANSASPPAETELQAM
To be noted: FPR2 E89G; mean ± s.e.m., n=3; SEM. The procedure: (§1) Flag-tagged wild-type and mutant FPR2s were cloned into the pTT5 vector and expressed in HEK293F cells. The cells were harvested, and washed with Hanks’ Balanced Salt Solution (HBSS) buffer supplemented with 0.5% bovine serum albumin and 20 mM HEPES, pH 7.4. The cells were then resuspended in the same buffer to the final concentration of 1 × 10^6 cells per ml. The cell-surface expression was measured as mentioned above. […] Mean fluorescent intensity of each well was then read by a FCM (flow cytometry) reader (Millipore). […] For competitive binding of fMLFK, cells were plated in 96-well plates (100,000 cells per well), and incubated with WK(FITC)YMVm at 4 °C for 1 h. The following concentrations of WK(FITC)YMVm were used: 10 nM (wild type, L81^2.60F, E89G, and V105^3.32A), 30 nM (D281^7.32G), 40 nM (H102^3.29F, V160^4.60A, L268^ECL3A, N285^7.36A, and F292^7.43A), and 100 nM (L164^4.64A and T177A). Then increasing concentrations of fMLFK (100 nM–1 mM) were added, and incubated for another 1 h on ice. Mean fluorescent intensity values were measured by flow cytometry. Data were analyzed using Prism 7.0.

The target of test [2] is T2, wild-type (WT) and mutant FPR2 (Homo sapiens, UniProt P25090, L81F).
T2 construct: expressed in transfected cells; host or cells: HEK293F
T2 sequence (P25090 1-351 L81F): T1 sequence (P25090 1-351 E89G) with L81F, G89E
To be noted: FPR2 L81F; mean ± s.e.m., n=4; SEM. As to the method:
as §1

The target in test [3] is T3, wild-type (WT) and mutant FPR2 (Homo sapiens, UniProt P25090, N285A).
T3 construct: expressed in transfected cells; host or cells: HEK293F
T3 sequence (P25090 1-351 N285A): T1 sequence (P25090 1-351 E89G) with G89E, N285A
As to conditions: FPR2 N285A; mean ± s.e.m., n=3; SEM. The procedure:
as §1

Test [4] addresses T4, wild-type (WT) and mutant FPR2 (Homo sapiens, UniProt P25090, V105A).
T4 construct: expressed in transfected cells; host or cells: HEK293F
T4 sequence (P25090 1-351 V105A): T1 sequence (P25090 1-351 E89G) with G89E, V105A
As to conditions: FPR2 V105A; mean ± s.e.m., n=3; SEM. The procedure:
as §1

Test [5] deals with T5, wild-type (WT) and mutant FPR2 (Homo sapiens, UniProt P25090, V160A).
T5 construct: expressed in transfected cells; host or cells: HEK293F
T5 sequence (P25090 1-351 V160A): T1 sequence (P25090 1-351 E89G) with G89E, V160A
As to conditions: FPR2 V160A; mean ± s.e.m., n=3; SEM. The procedure:
as §1

The results in this text go back to PMC7058083, “Structural basis of ligand binding modes at the human formyl peptide receptor 2” (Nature Communications, 2020).

Residue numbers refer to the chain shown, from its start. Residues, ends and D or L forms follow the SMILES beside them. *: point of attachment. For = O=C*

Turning to `CSCC[C@H](NC=O)C(=O)N[C@@H](CC(C)C)C(=O)N[C@@H](Cc1ccccc1)C(=O)N[C@@H](CCCCN)C(=O)O` [fMLFK] (For-MLFK-OH), the “pKi, competition binding” value worked out at 3.49 ± 0.31 in test [1]; 3.97 ± 0.27 in test [2]; 3.75 ± 0.16 in test [3]; 4.56 ± 0.21 in test [4]; 4.16 ± 0.14 in test [5].
